The source of these data is ChEMBL document CHEMBL1201862, “PubChem BioAssay data set” (2004).

Experiment [1] addresses T1, Oxysterols receptor LXR-beta (Homo sapiens, UniProt P55055).
T1 sequence (P55055 whole entry): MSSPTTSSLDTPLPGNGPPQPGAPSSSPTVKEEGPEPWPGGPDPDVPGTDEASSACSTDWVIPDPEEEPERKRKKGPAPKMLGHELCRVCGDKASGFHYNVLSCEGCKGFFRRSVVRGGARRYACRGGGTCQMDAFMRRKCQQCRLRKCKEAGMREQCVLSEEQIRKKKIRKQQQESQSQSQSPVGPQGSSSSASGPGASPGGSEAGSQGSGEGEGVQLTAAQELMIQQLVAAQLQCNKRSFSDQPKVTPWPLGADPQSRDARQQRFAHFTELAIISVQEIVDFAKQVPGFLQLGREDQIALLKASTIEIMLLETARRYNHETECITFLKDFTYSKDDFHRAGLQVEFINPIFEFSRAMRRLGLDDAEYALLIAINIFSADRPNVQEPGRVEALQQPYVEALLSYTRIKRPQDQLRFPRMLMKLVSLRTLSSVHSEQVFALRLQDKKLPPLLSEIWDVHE
It counts as functional, cell-based.

A short description of experiment [2]: inhibitors of non-replicating M. tuberculosis, dose response, luciferase, dry powder (AID 651619). It counts as functional. The following applies: Mycobacterium tuberculosis.
The nature of experiment [3]: inhibitors of non-replicating M. tuberculosis, dose response, luciferase, dry powder (AID 651620). It counts as functional. To be noted: Mycobacterium tuberculosis.
In experiment [4] the target is NAD-dependent protein deacylase sirtuin-5, mitochondrial (Homo sapiens, UniProt Q9NXA8). Nature of the experiment: SIRT5 deacylase inhibitors, dose response, biochemical, fluorescence imaging, cherry-pick, set 6 (AID 720597).
Chain of NAD-dependent protein deacylase sirtuin-5, mitochondrial (Q9NXA8 whole entry): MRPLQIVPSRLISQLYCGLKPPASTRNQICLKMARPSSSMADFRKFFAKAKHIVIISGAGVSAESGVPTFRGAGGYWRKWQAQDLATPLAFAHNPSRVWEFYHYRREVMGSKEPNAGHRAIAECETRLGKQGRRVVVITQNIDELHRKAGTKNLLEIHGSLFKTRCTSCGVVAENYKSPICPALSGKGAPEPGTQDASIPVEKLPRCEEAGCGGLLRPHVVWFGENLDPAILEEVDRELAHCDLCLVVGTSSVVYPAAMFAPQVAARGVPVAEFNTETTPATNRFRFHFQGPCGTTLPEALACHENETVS
The target of another experiment is Kallikrein-7 (Homo sapiens, UniProt P49862). In words: Fluorescence Intensity-based biochemical primary high throughput dose response assay to identify activators of kallikrein-7 (K7) zymogen.
Chain of Kallikrein-7 (P49862 whole entry): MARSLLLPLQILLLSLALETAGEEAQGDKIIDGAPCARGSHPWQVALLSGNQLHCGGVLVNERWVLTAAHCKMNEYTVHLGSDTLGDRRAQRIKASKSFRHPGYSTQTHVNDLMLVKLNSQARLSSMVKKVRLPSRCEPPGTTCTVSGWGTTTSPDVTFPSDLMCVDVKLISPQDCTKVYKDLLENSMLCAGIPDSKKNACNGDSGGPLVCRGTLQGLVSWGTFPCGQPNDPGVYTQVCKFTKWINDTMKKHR
The next experiment deals with Lethal factor (Bacillus anthracis, UniProt P15917). Nature of the experiment: High-throughput multiplex microsphere dose response for inhibitors of toxin protease, specifically Lethal Factor protease, compounds from Cherry Pick 02. It counts as functional. The following applies: read-out: EC50_MICROM.
Chain of Lethal factor (P15917 whole entry): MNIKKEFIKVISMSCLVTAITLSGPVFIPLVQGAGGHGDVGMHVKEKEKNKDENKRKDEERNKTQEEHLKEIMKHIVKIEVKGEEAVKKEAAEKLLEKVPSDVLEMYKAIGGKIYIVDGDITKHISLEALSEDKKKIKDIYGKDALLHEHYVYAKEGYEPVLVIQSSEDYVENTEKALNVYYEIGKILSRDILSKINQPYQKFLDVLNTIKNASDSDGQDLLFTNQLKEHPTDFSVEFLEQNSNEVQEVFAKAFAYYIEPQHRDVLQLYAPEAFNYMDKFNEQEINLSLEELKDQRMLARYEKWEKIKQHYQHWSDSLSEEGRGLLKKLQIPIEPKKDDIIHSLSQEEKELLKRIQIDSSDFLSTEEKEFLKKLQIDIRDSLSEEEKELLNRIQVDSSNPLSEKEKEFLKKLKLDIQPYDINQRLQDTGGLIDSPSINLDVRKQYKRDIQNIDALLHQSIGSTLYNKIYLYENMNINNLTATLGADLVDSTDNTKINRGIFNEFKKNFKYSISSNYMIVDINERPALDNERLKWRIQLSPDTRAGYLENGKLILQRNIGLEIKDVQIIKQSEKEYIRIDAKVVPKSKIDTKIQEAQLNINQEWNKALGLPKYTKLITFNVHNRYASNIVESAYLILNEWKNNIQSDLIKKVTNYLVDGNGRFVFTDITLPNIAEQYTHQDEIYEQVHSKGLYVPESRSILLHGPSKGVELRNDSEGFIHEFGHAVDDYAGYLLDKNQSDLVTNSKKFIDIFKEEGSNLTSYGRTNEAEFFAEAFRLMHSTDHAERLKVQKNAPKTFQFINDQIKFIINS
The target of experiment [5] is Botulinum neurotoxin type F (Clostridium botulinum, UniProt P30996). Nature of the experiment: High-throughput multiplex microsphere dose response for inhibitors of toxin protease, specifically Botulinum neurotoxin light chain F protease, compounds from Cherry Pick 02. The format is functional. To be noted: read-out: EC50_MICROM.
Chain of Botulinum neurotoxin type F (P30996 1-436 limits assumed): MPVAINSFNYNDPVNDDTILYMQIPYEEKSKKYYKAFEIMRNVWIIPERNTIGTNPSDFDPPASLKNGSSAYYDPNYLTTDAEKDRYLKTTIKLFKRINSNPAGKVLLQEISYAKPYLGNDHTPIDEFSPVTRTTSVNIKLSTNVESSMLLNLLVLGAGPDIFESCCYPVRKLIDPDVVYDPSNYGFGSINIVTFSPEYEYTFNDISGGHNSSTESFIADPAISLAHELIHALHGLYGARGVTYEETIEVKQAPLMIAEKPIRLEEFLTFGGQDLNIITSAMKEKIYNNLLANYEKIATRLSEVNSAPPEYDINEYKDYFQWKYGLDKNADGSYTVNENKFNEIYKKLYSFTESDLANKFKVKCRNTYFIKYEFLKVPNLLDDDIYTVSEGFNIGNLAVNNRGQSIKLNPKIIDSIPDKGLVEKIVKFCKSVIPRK
A further experiment concerns the target Paired box protein Pax-8 (Homo sapiens, UniProt Q06710). In words: inhibitors of PAX8-driven TPO luciferase reporter, dose response, RMG-I cells, cherry-pick (AID 687027).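 Also: luciferase reporter driven by Pax8 target thyroperoxidase promoter measured by SteadyGlo luminescence.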 The format is functional, cell-based. For orientation: Reporter assays use an easily measured gene product as a stand-in for the process of interest.
The nature of experiment [6]: IOSE-T80 ovarian epithelial cell cytotoxicity, dose response, cytotoxicity control for PAX8 inhibitor project, plate reader, dry powder samples (AID 743045). The format is functional, cell-based.
Experiment [7] can be described thus: A2780 ovarian cancer cell cytotoxicity, dose response, cytotoxicity control, plate reader, dry powder samples (AID 743046). The format is functional, cell-based.
A short description of experiment [8]: NIH:OVCAR-3 ovarian cancer cell cytotoxicity, dose response, PAX8 inhibitor project, plate reader, dry powder samples (AID 743044). It counts as functional, cell-based.
Experiment [9] can be described thus: cytotoxicity in OVCAR8 ovarian cancer cells, dose response, PAX8 project, cell-based, plate reader, dry powder samples (AID 743197). The format is functional. To be noted: OVCAR-8.
Another experiment deals with Mu-type opioid receptor (Homo sapiens, UniProt P35372). It counts as functional, cell-based.
Chain of Mu-type opioid receptor (P35372 whole entry): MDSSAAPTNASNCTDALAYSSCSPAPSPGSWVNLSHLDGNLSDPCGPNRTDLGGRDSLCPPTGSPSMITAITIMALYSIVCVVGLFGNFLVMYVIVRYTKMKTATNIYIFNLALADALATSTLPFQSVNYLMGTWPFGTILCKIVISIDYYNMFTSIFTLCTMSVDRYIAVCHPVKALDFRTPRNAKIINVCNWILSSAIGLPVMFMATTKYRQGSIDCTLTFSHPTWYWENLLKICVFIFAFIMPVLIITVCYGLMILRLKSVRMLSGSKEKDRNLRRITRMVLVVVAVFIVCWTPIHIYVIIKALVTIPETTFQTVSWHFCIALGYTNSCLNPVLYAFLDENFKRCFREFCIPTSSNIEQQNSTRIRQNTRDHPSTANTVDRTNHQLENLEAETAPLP
Experiment [10] deals with 5-hydroxytryptamine receptor 2A (Mus musculus, UniProt P35363). It counts as functional, cell-based.
Chain of 5-hydroxytryptamine receptor 2A (P35363 whole entry): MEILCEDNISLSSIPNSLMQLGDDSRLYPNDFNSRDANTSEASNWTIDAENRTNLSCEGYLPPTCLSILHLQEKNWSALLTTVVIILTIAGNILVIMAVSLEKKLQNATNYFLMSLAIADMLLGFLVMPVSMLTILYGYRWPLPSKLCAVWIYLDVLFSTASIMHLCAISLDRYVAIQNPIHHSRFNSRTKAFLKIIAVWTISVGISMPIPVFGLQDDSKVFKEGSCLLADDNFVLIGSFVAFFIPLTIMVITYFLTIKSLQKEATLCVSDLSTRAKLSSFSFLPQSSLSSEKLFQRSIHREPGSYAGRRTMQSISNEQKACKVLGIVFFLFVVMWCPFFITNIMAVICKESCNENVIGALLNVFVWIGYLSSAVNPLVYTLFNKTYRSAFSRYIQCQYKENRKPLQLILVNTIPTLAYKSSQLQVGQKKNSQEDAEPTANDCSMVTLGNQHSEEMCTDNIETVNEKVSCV
For experiment [11], the target named is T2, Microphthalmia-associated transcription factor (Homo sapiens, UniProt O75030).
T2 sequence (O75030 whole entry): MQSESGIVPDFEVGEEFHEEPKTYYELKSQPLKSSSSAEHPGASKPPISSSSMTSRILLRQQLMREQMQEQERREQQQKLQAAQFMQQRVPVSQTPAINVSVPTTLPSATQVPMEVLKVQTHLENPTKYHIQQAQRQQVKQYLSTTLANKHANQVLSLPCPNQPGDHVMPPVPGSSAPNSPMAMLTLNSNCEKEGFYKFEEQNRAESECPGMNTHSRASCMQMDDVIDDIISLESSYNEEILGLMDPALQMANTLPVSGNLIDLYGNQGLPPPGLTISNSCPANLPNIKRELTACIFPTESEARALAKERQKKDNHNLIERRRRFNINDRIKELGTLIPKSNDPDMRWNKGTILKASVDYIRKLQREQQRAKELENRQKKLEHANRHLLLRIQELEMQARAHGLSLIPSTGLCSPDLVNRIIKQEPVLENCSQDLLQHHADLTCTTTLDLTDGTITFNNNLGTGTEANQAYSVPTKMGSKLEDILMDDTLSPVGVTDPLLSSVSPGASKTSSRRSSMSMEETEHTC
In words: TRPM1 promoter luciferase signal decrease, dose response, MITF inhibitor project, cell-based, SK-MEL-5, cherry-picked, set 3 (AID 493073).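 Also: SK-MEL-5 melanoma cells with luciferase driven by the MITF target TRPM1 promoter.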 It counts as functional.

The nature of experiment [12]: inhibitors of HIV Env-driven cell fusion, dose response, cherry-pick (AID 652057). The format is functional, cell-based.
The nature of experiment [13]: ZM109 Env clade C HIV-1 fusion inhibitors, dose response, HeLa effector, CEM target cells, luciferase, cherry-pick (AID 652058). It counts as functional, cell-based.
Experiment [14] can be described thus: off-target signal loss in HeLa-CEM21 co-culture – HeLa F-luc CTL cells, cherry-picked, counter-screen for HIV-1 Env fusion inhibitor project, dose response (AID 652040).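 Also: potency for signal decrease marking cytotoxic or nonspecific inhibition.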 It counts as functional, cell-based.
A short description of experiment [15]: inhibitors of clade B AD8 Env fusion, dose response, cell-based, cherry-pick (AID 652062).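 Also: luciferase signal from cell-cell fusion driven by HIV-1 clade B AD8 Env; potency is for inhibitors of fusion seen as a drop in luminescence.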 It counts as functional.
Experiment [16] can be described thus: HIV Env cell-cell fusion inhibitors, dose response, HIV entry, plate reader, dry powder (AID 687023). It counts as functional, cell-based.
Experiment [17] is described as follows: luciferase signal loss, tTA control fusion, HeLa F-luc tTA cells, dry powder, counter-screen for HIV Env fusion inhibitor project, dose response (AID 687021). The format is functional, cell-based. On the technique in general: The purpose of a counterscreen is to sort out artefacts and off-target activity.
Experiment [18] in a line: CEM21 cell cytotoxicity, dose response, cytotoxicity control, plate reader, dry powder (AID 687026). It counts as functional, cell-based.
In experiment [19] the target is T3, Matrix metalloproteinase-14 (Homo sapiens, UniProt P50281). Nature of the experiment: SAR confirmation of uHTS hits for a small molecule inhibitors of MT1-MMP activation in a fluorescence assay. It counts as functional.
Experiment [20] addresses T3, Matrix metalloproteinase-14. Nature of the experiment: Dose Response confirmation of uHTS hits for a small molecule inhibitors of MT1-MMP activation in a fluorescence assay set 1. The format is functional.

Several values for one entry are separate records, joined by “and”; a condition that tells them apart may be missing. Equal values may be shown once. Activity calls are given as the source filed them. A value given as a limit tells only on which side of the number the result lay.

Chain of Paired box protein Pax-8 (Q06710 whole entry): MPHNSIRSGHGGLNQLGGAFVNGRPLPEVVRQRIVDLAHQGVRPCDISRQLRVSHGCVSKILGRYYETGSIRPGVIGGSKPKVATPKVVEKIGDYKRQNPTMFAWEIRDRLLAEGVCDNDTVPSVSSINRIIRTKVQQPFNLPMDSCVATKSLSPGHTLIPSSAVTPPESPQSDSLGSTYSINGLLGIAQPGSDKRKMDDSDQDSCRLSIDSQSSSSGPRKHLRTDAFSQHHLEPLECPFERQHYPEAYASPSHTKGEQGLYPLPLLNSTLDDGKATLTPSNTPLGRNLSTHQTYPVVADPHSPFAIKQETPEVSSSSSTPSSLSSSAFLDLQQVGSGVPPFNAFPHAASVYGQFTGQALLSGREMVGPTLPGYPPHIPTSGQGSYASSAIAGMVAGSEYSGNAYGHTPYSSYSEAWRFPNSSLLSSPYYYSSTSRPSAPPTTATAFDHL

Regarding `CCOC(=O)CSc1nc(-c2ccncc2)ccc1C#N`, the EC50 in experiment [1] is > 67.5 µM (inactive).

As to `c1ccc(Cn2cc(CSc3nnc(-c4ccccc4)o3)nn2)cc1`, the IC90 in experiment [2] and in experiment [3] was 2 µM (active) throughout.

Take `CCCNC(=O)N1[C@@H](CO)[C@H](c2ccccc2)C12CN(C(=O)CC1CC1)C2`: in [4], the AC50 is 24.6 µM (active).

For the compound `COc1ccc2ccccc2c1C=NNC(=O)c1cc(-c2ccc(C)c(C)c2)[nH]n1`, the EC50 on Kallikrein-7 is > 2.57 µM (active).

With `O=C(COC(=O)c1cncc(Br)c1)NC12CC3CC(CC(C3)C1)C2`, the EC50 on Lethal factor is 11.5 µM (active); in experiment [5], > 20 µM (inactive).

With `C[C@H]1CCCCO[C@H](CN(C)C(=O)Nc2ccc(C(F)(F)F)cc2)[C@@H](C)CN([C@@H](C)CO)C(=O)c2cc(NC(=O)Nc3ccc(F)cc3)ccc2O1`, the AC50 on Paired box protein Pax-8 is 3.62 µM (active); in experiment [6] it was 50.8 µM (active); in experiment [7], 52.4 µM (active); in [8], 11.2 µM (active); in [9] it was 23.7 µM (active).

`FC(F)(F)c1cccc(CN2CCN(c3ncccn3)CC2)c1`: the EC50 at Mu-type opioid receptor was 92.4 µM (inactive); in experiment [10] it was 4.16 µM (active).

As for `Oc1ccc(CNc2ccccc2F)c2cccnc12`, the AC50 in [11] is 15.1 µM (active); in experiment [12], 5.19 µM (active); in experiment [13], 1.58 µM (active); in experiment [14], 36 µM (active); in [15], 9.33 µM (active); in experiment [16], > 70 µM (inactive). The AC50 in experiment [17] was > 70 µM (inactive); in [18], 50.8 µM (active) and 64.1 µM (active).

As for `COc1ccc(C)cc1Nc1nc(-c2c(C)[nH]c3ccccc23)cs1`, the IC50 in experiment [19] was > 80 µM (inactive); in [20], 22.1 µM (inactive).

One may read the IC90 as the concentration needed for an effect of 90%. As a reminder, the AC50 is the midpoint of the concentration-response curve, whichever way the signal moves. For orientation: IC50 means the concentration needed to halve the response being measured.
